In patent US11964978B2, “Modulators of STING (stimulator of interferon genes)” (PFIZER INC., priority 2021, dated 2024):
Where two headings read alike, the source gives them in different places.

What was measured:
[1] = test system: THP-1 Lucia ISG cells (IRF-inducible Lucia luciferase reporter); assay: Interferon-β induction: THP-1 ISG reporter cell line; format: cell-based; conditions: THP1-Lucia ISG, 24 hours incubation, read-out: THP-1 Lucia ISG Cells IFN-β EC50
Method: Interferon-β Induction: THP-1 ISG Reporter Cell Line
THP-1 Lucia™ ISG cells (InvivoGen) express the secreted luciferase “Lucia” reporter gene under the control of an IRF-inducible composite promotor comprised of five interferon response elements. THP-1 Lucia™ ISG cells were grown in RPMI media plus 2 mM L-glutamine, 10% fetal bovine serum, and 0.5% Pen-Strep. Hygromycin B and Zeocin were present to maintain stable transfection. 10^4 cells were seeded in 96-well plates and incubated overnight 37° C., 5% CO2. 50 μL of serial diluted compounds in media (final 0.5% DMSO) was and incubated for an additional 24 hours. After incubation, the plates were centrifuged at 2000 rpm for 10 min. 50 μl of cell culture supernatant of each well was transferred to a white, opaque 96-well plate. One pouch of QUANTI-Luc™ (InvivoGen) powder was prepared in 25 mL of endotoxin-free water and 100 μL of prepared warm QUANTI-Luc solution were added to each well containing the supernatant. The luminescence signal was measured using a Perkin-Elmer Envision microplate reader. Data were normalized to “% effect” with a positive control STING agonist that was known to maximize the luciferase signal and the negative control DMSO.

[2] = test system: phosphorylation of IRF3 in THP-1 cells (STING activation); assay: Phosphorylation of IRF3: THP-1 cell ELISA; format: cell-based; conditions: Homo sapiens, 3 hours incubation, read-out: THP-1 CELL P-IRF3 EC50
Method: Phosphorylation of IRF3: THP-1 cell ELISA
STING activation results in recruitment of TBK1 and phosphorylation of IRF3 transcription factor before induction of type I interferons. THP-1 cells (InvivoGen) were grown in RPMI media plus 2 mM L-glutamine, 10% fetal bovine serum, and 0.5% Pen-Strep. 10^4 cells were seeded in 96-well plates and incubated overnight […]. Compounds serial diluted compounds in media (final 0.5% DMSO) were added to the cells and incubated for an additional 3 hours. After incubation, the plates were centrifuged at 2000 rpm for 5 min. The cells were then lysed in 100 μl RIPA buffer and vortexed for 30 minutes at room temperature. 25 μl of lysate was then transferred to clear polystyrene High Bind plates that had been previously coated with mouse anti-human IRF-3 capture antibody (BD Pharmigen), and allowed to incubate at 4° C. for 16 hours. The plates were then washed and incubated with rabbit anti-phospho-IRF3 detection antibody (Cell Signaling Technologies) for 1.5 hours at room temperature. Finally, an HRP-linked secondary antibody (Cell Signaling Technologies) was added for 30 min before the Glo Substrate Reagent (R&D Systems) was used generate the luminescent signal. The signal was measured using a Perkin-Elmer Envision microplate reader. Data were normalized to “% effect” with a positive control STING agonist that was known to maximize the phosphorylated IRF3 signal and the negative control was DMSO.

R232-STING [3] = molecular target: T1, R232-STING (Homo sapiens (Human), UniProt Q86WV6, H232R); assay: biochemical
T1 sequence (Q86WV6 155-341 H232R): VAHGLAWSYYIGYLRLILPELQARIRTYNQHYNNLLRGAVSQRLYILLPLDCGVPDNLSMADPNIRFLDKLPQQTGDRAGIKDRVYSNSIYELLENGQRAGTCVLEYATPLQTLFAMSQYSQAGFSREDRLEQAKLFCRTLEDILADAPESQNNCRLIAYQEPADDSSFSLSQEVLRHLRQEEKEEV

R232-STING [4] = molecular target: T1, R232-STING; conditions: read-out: R232-STING SPA-IC50 Ki; STING residues 155-341, 100 nM 3H-cGAMP; KI from IC50 with Cheng-Prusoff equation

`CCn1nc(C)cc1-c1cn(CC(C)O)c(-c2nc(C(N)=O)cc3c2cnn3C)n1` (racemic) [AIP05, (Rac)-4-[4-(1-ethyl-3-methyl-1H-pyrazol-5-yl)-1-(2-hydroxypropyl)-1H-imidazol-2-yl]-1-methyl-1H-pyrazolo[4,3-c]pyridine-6-carboxamide] gave an EC50 [1] of 1.25 µM, an EC50 [2] of 1.23 µM and a Ki (R232-STING [3]) of 0.0271 µM.
For `Cc1cc(-c2cn(C)c(-c3nc(C(N)=O)cc4c3ccn4C)n2)n(CCCO)n1` [AIJ02, 4-{4-[1-(3-hydroxypropyl)-3-methyl-1H-pyrazol-5-yl]-1-methyl-1H-imidazol-2-yl}-1-methyl-1H-pyrrolo[3,2-c]pyridine-6-carboxamide], the EC50 [1] was 1.92 µM, the EC50 [2] was 1.51 µM and the Ki (R232-STING [3]) was 0.0397 µM.
In the case of `Cc1cc(-c2cn(C)c(-c3nc(C(N)=O)cc4c3cnn4C)n2)n(CC(N)=O)n1` [Example AIP02, 4-{4-[1-(2-amino-2-oxoethyl)-3-methyl-1H-pyrazol-5-yl]-1-methyl-1H-imidazol-2-yl}-1-methyl-1H-pyrazolo[4,3-c]pyridine-6-carboxamide], the EC50 [1] is reported as over 10 µM, the Ki (R232-STING [4]) is reported as 0.161 µM and the EC50 [2] is reported as over 10 µM.
For `Cc1cc(-c2cn(C)c(-c3nc(C(N)=O)cc4c3cnn4C)n2)n(CCC#N)n1` [Example AIQ01, 4-{4-[1-(2-cyanoethyl)-3-methyl-1H-pyrazol-5-yl]-1-methyl-1H-imidazol-2-yl}-1-methyl-1H-pyrazolo[4,3-c]pyridine-6-carboxamide], the EC50 [1] was 2.26 µM, the Ki (R232-STING [4]) was 0.0626 µM and the EC50 [2] was 2.24 µM.
